Test results published in publication PMC4553520, “Laboratory and Simulated Field Bioassays to Evaluate Larvicidal Activity of Pinus densiflora Hydrodistillate, Its Constituents and Structurally Related Compounds against Aedes albopictus, Aedes aegypti and Culex pipiens pallens in Relation to Their Inhibitory Effects on Acetylcholinesterase Activity” (Insects, 2013).
Converted amounts (≈) assume the structure as drawn.

Columns and labels:
[1] = test system: early third-instar larvae of Ae. aegypti; assay: Direct-contact mortality bioassay, Ae. aegypti larvae; conditions: for LC50 (Ae. aegypti), mg/L (95% CL): early third-instar larvae, 24 h exposure, direct contact; for LC50: Aedes aegypti, 24 h, read-out: LC50 (Ae. aegypti), mg/L (95% CL)
Procedure: (§1) Direct-contact mortality bioassays were employed to evaluate the toxicity of all compounds, using early third-instar larvae of each mosquito species. Each compound was dissolved in methanol, and then further diluted in distilled water containing Triton X-100 (20 µL/L). Groups of 20 mosquito larvae of each species were put into separate paper cups (270 mL), each containing different compound solutions (250 mL). The toxicity of each compound was determined by repeating this experimental procedure with different concentrations, ranging from 5 to 200 mg/L. Temephos and fenthion served as standard references and were similarly formulated as well. Controls contained only methanol-Triton X-100 carrier solution in distilled water.
(§2) Both treated and control larvae were kept under the same conditions as those used for colony maintenance. […] Due to certain constraints arising from the number of available larvae, all necessary bioassays could not be conducted simultaneously and thus, treatments were conducted over a period of time, with a separate control treatment included each time. Freshly prepared compound solutions were used for each round of bioassays. All bioassays were repeated three times.
(§3) Concentration-mortality data were subjected to probit analysis using SAS [20]. […] Furthermore, for the compounds tested in AChE inhibition assays, a correlation analysis between their LC50 values and IC50 values was conducted using SAS [20].

[2] = test system: early third-instar larvae of Ae. albopictus; assay: Direct-contact mortality bioassay, Ae. albopictus larvae; conditions: for LC50 (Ae. albopictus), mg/L (95% CL): early third-instar larvae, 24 h exposure, direct contact; for LC50: Aedes albopictus, 24 h, read-out: LC50 (Ae. albopictus), mg/L (95% CL)
Procedure: as §1, §2, §3

[3] = test system: early third-instar larvae of Cx. p. pallens; assay: Direct-contact mortality bioassay, laboratory-reared Cx. p. pallens larvae; conditions: for LC50 (Cx p. pallens), mg/L (95% CL): laboratory-reared early third-instar larvae, 24 h exposure, direct contact; for LC50: Culex pipiens, 24 h, read-out: LC50 (Cx p. pallens), mg/L (95% CL)
Procedure: as §1, §2, §3

[4] = test system: field-collected larvae of Cx. p. pallens; assay: Semi-field bioassay, field-collected Cx. p. pallens larvae; conditions: for LC50: Culex pipiens, 24 h, read-out: LC50, mg/L, Field-collected; for Resistance ratio: field-collected vs laboratory-reared Cx. p. pallens larvae (LC50 ratio)
Procedure: Larvae of wild mosquitoes were field-collected from irrigated rice fields in Yongin, Korea in early August 2012. A satellite view of the larvae collection site is included in Figure 1 [13].
The buckets were treated with test compounds and covered with nylon mesh screen to prevent other mosquitoes and insects from laying eggs. The buckets were then placed back at the initial collection site and were allowed to stand for 24 h, after which the mortality data were recorded. Temephos and fenthion served as standard references.
as §3

Molecule	LC50 (Ae. aegypti), mg/L (95% CL) [1]	LC50 (Ae. albopictus), mg/L (95% CL) [2]	LC50 (Cx p. pallens), mg/L (95% CL) [3]	LC50 [1] [mg/L]	LC50 [2] [mg/L]	LC50 [3] [mg/L]	LC50 [4] [mg/L]	Resistance ratio [4]
CC1=C[C@H](O)[C@H]2C[C@@H]1C2(C)C (relative stereo) [(S)-cis-verbenol]	>150 mg/L	136.86 (121.92–161.87) mg/L	140.41 (124.89–167.57) mg/L	–	–	–	–	–
CC1(C)[C@@H]2CC[C@H](CO)[C@H]1C2 (relative stereo) [(−)-cis-myrtanol]	>150 mg/L	>150 mg/L	>150 mg/L	–	–	–	–	–
CC(C)=CCCC(C)CC=O (single isomer, unassigned; (+)) [(+)-citronellal]	48.23 (42.42–55.64) mg/L	46.39 (41.08–52.95) mg/L	49.47 (43.52–57.04) mg/L	–	–	–	–	–
C=C(C)C1CC=C(C)CC1 (single isomer, unassigned; (+)) [(+)-limonene]	–	–	–	15.3 (≈ 112 µM)	10.8 (≈ 79.1 µM)	10.8 (≈ 79 µM)	10.5 (≈ 77.4 µM)	0.98
CC1=CCC(O)(C(C)C)CC1 (single isomer, unassigned; (+)) [(+)-terpinen-4-ol]	78.73 (71.24–85.73) mg/L	98.28 (91.85–105.07) mg/L	86.25 (78.22–95.55) mg/L	–	–	–	–	–
CC1(C)C2CC=C(CO)C1C2 (single isomer, unassigned; (-)) [(−)-myrtenol]	>150 mg/L	>150 mg/L	>150 mg/L	–	–	–	–	–
CC12CCC(CC1)C(C)(C)O2 [1,8-cineole]	–	–	–	73.3 (≈ 475 µM)	73.5 (≈ 476 µM)	72.9 (≈ 472 µM)	–	–
CC1=CC[C@@H]2C[C@H]1C2(C)C [(1R)-(+)-α-pinene]	–	–	–	51.3 (≈ 376 µM)	55.6 (≈ 408 µM)	60.8 (≈ 447 µM)	–	–
CC1=CC[C@H]2C[C@@H]1C2(C)C [(1S)-(−)-α-pinene]	–	–	–	40 (≈ 293 µM)	28.6 (≈ 210 µM)	32 (≈ 235 µM)	–	–
CC(C)=CCCC(C)CCO (stereo not drawn) [(+)-β-citronellol]	93.46 (85.80–101.82) mg/L	90.89 (83.26–99.00) mg/L	87.81 (80.62–95.50) mg/L	–	–	–	–	–
C=C(C)[C@H]1CC=C(C)C(=O)C1 [(S)-(+)-carvone]	42.14 (39.62–44.62) mg/L	43.83 (41.78–45.91) mg/L	46.19 (43.54–49.12) mg/L	–	–	–	–	–
CC(C)=CCC[C@H](C)CC=O [(−)-citronellal]	–	–	–	37.5 (≈ 243 µM)	41.1 (≈ 266 µM)	41.9 (≈ 272 µM)	–	–
CC1=CC(=O)[C@H]2C[C@@H]1C2(C)C [(−)-verbenone]	–	–	–	96.8 (≈ 644 µM)	89.4 (≈ 595 µM)	89.1 (≈ 593 µM)	–	–
CC(C)=CCCC(C)CCO (stereo not drawn) [(−)-β-citronellol]	75.31 (68.31–83.22) mg/L	71.99 (64.67–80.37) mg/L	66.26 (59.63–73.33) mg/L	–	–	–	–	–
C=C1CC[C@@H]2[C@H]([C@@H]3[C@H](C)CC[C@@H]13)C2(C)C [Aromadendrene]	>150 mg/L	129.21 (118.02–145.97) mg/L	147.91 (127.93–188.26) mg/L	–	–	–	–	–
CC1(C)C2CCC1(C)C(O)C2 (stereo not shown) [Borneol]	–	–	–	> 150	> 150	> 150	–	–
CC(=O)OC1CC2CCC1(C)C2(C)C (stereo not shown) [Bornyl acetate]	–	–	–	> 150	> 150	> 150	–	–
C=C1C2CCC(C2)C1(C)C (stereo not shown) [Camphene]	–	–	–	72.9 (≈ 535 µM)	79.1 (≈ 581 µM)	80.1 (≈ 588 µM)	–	–
CC12CCC(CC1=O)C2(C)C (stereo not shown) [Camphor]	–	–	–	> 150	> 150	> 150	–	–
Cc1ccc(C(C)C)cc1O [Carvacrol]	–	–	–	101 (≈ 673 µM)	95 (≈ 633 µM)	91.9 (≈ 612 µM)	–	–
C=C(C)C1CC=C(C)[C@@H](O)C1 (stereo partly shown) [Carveol]	–	–	–	124 (≈ 814 µM)	121 (≈ 796 µM)	114 (≈ 746 µM)	–	–

Molecule	LC50 (Ae. aegypti), mg/L (95% CL) [1]	LC50 (Ae. albopictus), mg/L (95% CL) [2]	LC50 (Cx p. pallens), mg/L (95% CL) [3]	LC50 [1] [mg/L]	LC50 [2] [mg/L]	LC50 [3] [mg/L]	LC50 [4] [mg/L]	Resistance ratio [4]
C=C1CC[C@H]2O[C@]2(C)CC[C@@H]2[C@@H]1CC2(C)C [Caryophyllene oxide]	113.00 (104.54–123.59) mg/L	107.62 (99.82–116.81) mg/L	126.28 (110.92–158.13) mg/L	–	–	–	–	–
COP(=S)(OC)Oc1ccc(SC)c(C)c1 [Fenthion, reference compound]	–	–	–	0.022 (≈ 0.079 µM)	0.012 (≈ 0.0431 µM)	0.027 (≈ 0.097 µM)	3.12 (≈ 11.2 µM)	115.56
CC(C)=CCC/C(C)=C/CO [Geraniol]	–	–	–	73.4 (≈ 476 µM)	68.2 (≈ 442 µM)	57 (≈ 369 µM)	–	–
CC(=O)OC/C=C(\C)CCC=C(C)C [Geranyl acetate]	–	–	–	21.4	33	30.3	–	–
C=CC(C)(O)CCC=C(C)C (stereo not shown) [Linalool]	–	–	–	113 (≈ 736 µM)	129 (≈ 837 µM)	144 (≈ 935 µM)	–	–
C=CC(C)(CCC=C(C)C)OC(C)=O (stereo not shown) [Linanyl acetate]	–	–	–	97.8	98.1	97	–	–
CC1CCC(C(C)C)C(O)C1 (stereo not shown) [Menthol]	–	–	–	81.2 (≈ 520 µM)	69.6 (≈ 445 µM)	67.3 (≈ 430 µM)	–	–
C=CC(=C)CCC=C(C)C [Myrcene, β-myrcene]	–	–	–	39.5 (≈ 290 µM)	36 (≈ 264 µM)	41.3 (≈ 303 µM)	–	–
CC(C)=CCC/C(C)=C\CO [Nerol]	–	–	–	121 (≈ 783 µM)	112 (≈ 723 µM)	111 (≈ 723 µM)	–	–
COP(=S)(OC)Oc1ccc(Sc2ccc(OP(=S)(OC)OC)cc2)cc1 [Temephos, reference compound]	–	–	–	0.015 (≈ 0.0322 µM)	0.01 (≈ 0.0214 µM)	0.013 (≈ 0.0279 µM)	1.68 (≈ 3.6 µM)	129.23
CC(=O)OC(C)(C)C1CC=C(C)CC1 (stereo not shown) [Terpinyl acetate]	96.32 (89.89–103.04) mg/L	72.39 (65.05–80.55) mg/L	58.27 (52.60–64.82) mg/L	–	–	–	–	–
Cc1cccc(C(C)C)c1 [m-cymene]	–	–	–	69.7 (≈ 519 µM)	62 (≈ 462 µM)	59.4 (≈ 442 µM)	–	–
Cc1ccccc1C(C)C [o-cymene]	39.60 (33.25–46.71) mg/L	48.57 (42.14–55.77) mg/L	47.78 (40.96–55.39) mg/L	–	–	–	–	–
Cc1ccc(C(C)C)cc1 [p-cymene]	–	–	–	33.5 (≈ 249 µM)	32.8 (≈ 245 µM)	29.7 (≈ 221 µM)	–	–
CC1=CC[C@H](C(C)C)C=C1 [α-phellandrene]	–	–	–	19.4 (≈ 142 µM)	16.9 (≈ 124 µM)	14 (≈ 103 µM)	–	–
CC1=CC=C(C(C)C)CC1 [α-terpinene]	–	–	–	24.9 (≈ 182 µM)	21.9 (≈ 161 µM)	23.9 (≈ 175 µM)	–	–
CC1=CCC(=C(C)C)CC1 [α-terpinolene]	–	–	–	15.3 (≈ 112 µM)	13.9 (≈ 102 µM)	10.6 (≈ 78 µM)	13.9 (≈ 102 µM)	1.31
C=C1CC/C=C(\C)CC[C@@H]2[C@@H]1CC2(C)C [β-caryophyllene]	–	–	–	38.6 (≈ 189 µM)	39.5 (≈ 193 µM)	47.8 (≈ 234 µM)	–	–
CC1=CCC(C(C)C)=CC1 [γ-terpinene]	–	–	–	20.5 (≈ 150 µM)	16.2 (≈ 119 µM)	17.8 (≈ 130 µM)	–	–
CC1=CCC2C(C1)C2(C)C (stereo not shown) [δ-3-carene]	–	–	–	12.1 (≈ 88.8 µM)	9.33 (≈ 68.5 µM)	10.1 (≈ 74.2 µM)	12.7 (≈ 93 µM)	1.25
(−)-terpinen-4-ol	72.36 (66.33–78.22) mg/L	92.16 (84.28–101.24) mg/L	85.66 (75.71–97.28) mg/L	–	–	–	–	–
